{"source": "paper PMC6576746", "about": "“Rational discovery of dual-indication multi-target PDE/Kinase inhibitor for precision anti-cancer therapy using structural systems pharmacology” (PLoS Computational Biology, 2019)", "assay_in_all_cases": "cells", "design_in_all_cases": "species or system panel of human cancer cell lines; Eurofins OncoPanel proliferation; nuclei count by high-content fluorescence imaging, 10-point dose response", "key": {"[1]": {"system": "Calu6", "settings": "Homo sapiens, Calu-6, 72 h, cell count, 3 days", "method_in_brief": "(§1)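 Cells in RPMI 1640/10% FBS or special medium received compound the day after seeding, with a time-zero plate; 3-day incubation at 37°C, 5% CO2. Nuclei imaged by fluorescence microscopy; 10 half-log doses from 100 μM, 0.1% DMSO. EC50, IC50, GI50 and activity area (0–10) from curve fits.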"}, "[2]": {"system": "RKOE6", "settings": "Homo sapiens, RKOE6, 72 h, cell count, 3 days", "method_in_brief": "as §1"}, "[3]": {"system": "NAMALWA", "settings": "72 h, cell count, 3 days", "method_in_brief": "as §1"}, "[4]": {"system": "Ramos (RA 1)", "settings": "Homo sapiens, Ramos, 72 h, cell count, 3 days", "method_in_brief": "as §1"}, "[5]": {"system": "Capan-2", "settings": "Homo sapiens, Capan-2, 72 h, cell count, 3 days", "method_in_brief": "as §1"}, "[6]": {"system": "NCI-H508", "settings": "Homo sapiens, NCI-H508, 72 h, cell count, 3 days", "method_in_brief": "as §1"}, "[7]": {"system": "ARH-77", "settings": "Homo sapiens, ARH-77, 72 h, cell count, 3 days", "method_in_brief": "as §1"}, "[8]": {"system": "22Rv1", "settings": "Homo sapiens, 22Rv1, 72 h, cell count, 3 days", "method_in_brief": "as §1"}, "[9]": {"system": "HT-29", "settings": "Homo sapiens, HT-29, 72 h, cell count, 3 days", "method_in_brief": "as §1"}, "[10]": {"system": "D341 Med", "settings": "D341 Med, 72 h, cell count, 3 days", "method_in_brief": "as §1"}, "[11]": {"system": "BFTC-905", "settings": "Homo sapiens, BFTC-905, 72 h, cell count, 3 days", "method_in_brief": "as §1"}, "[12]": {"system": "PANC-1", "settings": "Homo sapiens, PANC-1, 72 h, cell count, 3 days", "method_in_brief": "as §1"}, "[13]": {"system": "A101D", "settings": "Homo sapiens, A101D, 72 h, cell count, 3 days", "method_in_brief": "as §1"}, "[14]": {"system": "TT", "settings": "Homo sapiens, TT, 72 h, cell count, 3 days", "method_in_brief": "as §1"}, "[15]": {"settings": "50% of maximum possible response"}}}
{"molecule": "C[C@@H]1CC(=O)NN=C1c1ccc(NN=C(C#N)C#N)cc1", "note": "[levosimendan]", "values": [{"measurement": "IC50", "setting": "[1]; [15]", "value": "> 100", "unit": "µM"}, {"measurement": "GI50", "setting": "[1]; corrected for time zero", "value": 91.5, "unit": "µM"}, {"measurement": "EC50", "setting": "[1]; curve inflection point", "value": "> 100", "unit": "µM"}, {"measurement": "IC50", "setting": "[2]; [15]", "value": 7.12, "unit": "µM"}, {"measurement": "GI50", "setting": "[2]; corrected for time zero", "value": 6.28, "unit": "µM"}, {"measurement": "EC50", "setting": "[2]; curve inflection point", "value": 6.96, "unit": "µM"}, {"measurement": "IC50", "setting": "[3]; [15]", "value": 12.5, "unit": "µM"}, {"measurement": "GI50", "setting": "[3]; corrected for time zero", "value": 11.3, "unit": "µM"}, {"measurement": "EC50", "setting": "[3]; curve inflection point", "value": 12.5, "unit": "µM"}, {"measurement": "IC50", "setting": "[4]; [15]", "value": 24.1, "unit": "µM"}, {"measurement": "GI50", "setting": "[4]; corrected for time zero", "value": 21.2, "unit": "µM"}, {"measurement": "EC50", "setting": "[4]; curve inflection point", "value": 24.1, "unit": "µM"}, {"measurement": "IC50", "setting": "[5]; [15]", "value": 49.7, "unit": "µM"}, {"measurement": "GI50", "setting": "[5]; corrected for time zero", "value": 42.3, "unit": "µM"}, {"measurement": "EC50", "setting": "[5]; curve inflection point", "value": 49.7, "unit": "µM"}, {"measurement": "IC50", "setting": "[6]; [15]", "value": 38.4, "unit": "µM"}, {"measurement": "GI50", "setting": "[6]; corrected for time zero", "value": 33.5, "unit": "µM"}, {"measurement": "EC50", "setting": "[6]; curve inflection point", "value": 38.4, "unit": "µM"}, {"measurement": "IC50", "setting": "[7]; [15]", "value": 20.3, "unit": "µM"}, {"measurement": "GI50", "setting": "[7]; corrected for time zero", "value": 16, "unit": "µM"}, {"measurement": "EC50", "setting": "[7]; curve inflection point", "value": 19.3, "unit": "µM"}, {"measurement": "IC50", "setting": "[8]; [15]", "value": 55.6, "unit": "µM"}, {"measurement": "GI50", "setting": "[8]; corrected for time zero", "value": 45.8, "unit": "µM"}, {"measurement": "EC50", "setting": "[8]; curve inflection point", "value": 55.6, "unit": "µM"}, {"measurement": "IC50", "setting": "[9]; [15]", "value": "> 100", "unit": "µM"}, {"measurement": "GI50", "setting": "[9]; corrected for time zero", "value": 82.7, "unit": "µM"}, {"measurement": "EC50", "setting": "[9]; curve inflection point", "value": "> 100", "unit": "µM"}, {"measurement": "IC50", "setting": "[10]; [15]", "value": 73.8, "unit": "µM"}, {"measurement": "GI50", "setting": "[10]; corrected for time zero", "value": 39.6, "unit": "µM"}, {"measurement": "EC50", "setting": "[10]; curve inflection point", "value": 73.8, "unit": "µM"}, {"measurement": "IC50", "setting": "[11]; [15]", "value": 13.4, "unit": "µM"}, {"measurement": "GI50", "setting": "[11]; corrected for time zero", "value": 12.4, "unit": "µM"}, {"measurement": "EC50", "setting": "[11]; curve inflection point", "value": 13.4, "unit": "µM"}, {"measurement": "IC50", "setting": "[12]; [15]", "value": 80.9, "unit": "µM"}, {"measurement": "GI50", "setting": "[12]; corrected for time zero", "value": 47, "unit": "µM"}, {"measurement": "EC50", "setting": "[12]; curve inflection point", "value": 80.9, "unit": "µM"}, {"measurement": "IC50", "setting": "[13]; [15]", "value": 34.8, "unit": "µM"}, {"measurement": "GI50", "setting": "[13]; corrected for time zero", "value": 26.6, "unit": "µM"}, {"measurement": "EC50", "setting": "[13]; curve inflection point", "value": 34.8, "unit": "µM"}, {"measurement": "IC50", "setting": "[14]; [15]", "value": "> 100", "unit": "µM"}, {"measurement": "GI50", "setting": "[14]; corrected for time zero", "value": 14.3, "unit": "µM"}, {"measurement": "EC50", "setting": "[14]; curve inflection point", "value": "> 100", "unit": "µM"}]}
